Assay results: the NIST ThermoML archive (doi:10.1021/je800468h)
Where “and” joins values, the source holds several entries; their conditions need not be identical. Equal entries are not always repeated. ± gives the expanded uncertainty stated by the source.

Assay: xn = mol fraction of the nth substance listed
Settings: 298.15 K, 101 kPa, Liquid; for electrical conductivity: Alternating current cell with electrodes; for mass density: Vibrating tube method

CCCCn1cc[n+](C)c1.N#CN=C=[N-] [1-butyl-3-methylimidazolium dicyanamide] + O
Settings	electrical conductivity [S/m]	mass density [kg/m3]
x1 = 0.009639	2.02 ± 0.02	1003.22 ± 0.12
x1 = 0.02791	3.49 ± 0.04	1011.25 ± 0.12
x1 = 0.05432	4.43 ± 0.04	1019.63 ± 0.13
x1 = 0.07995	4.8 ± 0.05	1025.43 ± 0.14
x1 = 0.1112	4.9 ± 0.05	1031.05 ± 0.16
x1 = 0.1933	4.47 ± 0.05	1040.01 ± 0.29
x1 = 0.3214	3.55 ± 0.04	1047.31 ± 0.67
x1 = 0.4686	2.71 ± 0.03	1051.86 ± 1.3
x1 = 0.6386	2 ± 0.02	1055.38 ± 2.5
x1 = 0.8742	1.37 ± 0.014	1058.33 ± 4.6
x1 = 1	1.139 ± 0.011	1059.12 ± 6.1

CCCCn1cc[n+](C)c1.F[P-](F)(F)(F)(F)F [1-butyl-3-methylimidazolium hexafluorophosphate] + CC#N
Settings	electrical conductivity [S/m]	mass density [kg/m3]
x1 = 0.007571	1.49 ± 0.015	795.63 ± 0.15
x1 = 0.01576	2.54 ± 0.03	815.17 ± 0.15
x1 = 0.02489	3.39 ± 0.03	835.56 ± 0.15
x1 = 0.03448	4.05 ± 0.04	855.89 ± 0.16
x1 = 0.05838	5 ± 0.05	901.77 ± 0.17
x1 = 0.08779	5.39 ± 0.05	950.71 ± 0.2
x1 = 0.1261	5.27 ± 0.05	1004.47 ± 0.23
x1 = 0.1772	4.68 ± 0.05	1062.7 ± 0.32
x1 = 0.2521	3.63 ± 0.04	1128.61 ± 0.57
x1 = 0.3649	2.3 ± 0.02	1199.71 ± 1.2
x1 = 0.5591	0.995 ± 0.01	1278.14 ± 2.9
x1 = 0.7291	0.469 ± 0.005	1321.97 ± 5.1
x1 = 0.8729	0.253 ± 0.003	1349.76 ± 7.6
x1 = 1	0.147 ± 0.0015	1368.32 ± 10

CCCCn1cc[n+](C)c1.F[B-](F)(F)F [1-butyl-3-methylimidazolium tetrafluoroborate] + CO
Settings	electrical conductivity [S/m]	mass density [kg/m3]
x1 = 0.007409	0.867 ± 0.009	802.48 ± 0.15
x1 = 0.01543	1.45 ± 0.015	818.28 ± 0.15
x1 = 0.02435	1.97 ± 0.02	834.29 ± 0.15
x1 = 0.03355	2.4 ± 0.02	849.76 ± 0.15
x1 = 0.05717	3.3 ± 0.03	885.02 ± 0.16
x1 = 0.08589	3.81 ± 0.04	921.13 ± 0.18
x1 = 0.1242	4.18 ± 0.04	961.01 ± 0.2
x1 = 0.1755	4.26 ± 0.04	1002.48 ± 0.26
x1 = 0.248	3.92 ± 0.04	1046.31 ± 0.45
x1 = 0.3624	3.09 ± 0.03	1094.85 ± 0.92
x1 = 0.5583	1.76 ± 0.018	1145.28 ± 2.2

CCCCn1cc[n+](C)c1.F[B-](F)(F)F [1-butyl-3-methylimidazolium tetrafluoroborate] + C[S+](C)[O-]
Settings	electrical conductivity [S/m]	mass density [kg/m3]
x1 = 0.01925	0.687 ± 0.007	1101.56 ± 0.13
x1 = 0.03427	1.029 ± 0.01	1106.21 ± 0.14
x1 = 0.07837	1.56 ± 0.016	1117.8 ± 0.16
x1 = 0.1247	1.715 ± 0.017	1128.31 ± 0.2
x1 = 0.1866	1.67 ± 0.017	1139.5 ± 0.32
x1 = 0.2554	1.502 ± 0.015	1150.71 ± 0.53
x1 = 0.3251	1.31 ± 0.013	1159.4 ± 0.81
x1 = 0.4423	1.015 ± 0.01	1171.71 ± 1.5
x1 = 0.5246	0.854 ± 0.009	1178.2 ± 2.1
x1 = 0.6132	0.711 ± 0.007	1184.27 ± 2.8
x1 = 0.7494	0.543 ± 0.005	1192.13 ± 4.3

CCCCn1cc[n+](C)c1.F[B-](F)(F)F [1-butyl-3-methylimidazolium tetrafluoroborate] + ClCCl
x1 = 1
Settings	electrical conductivity [S/m]	mass density [kg/m3]
–	0.353 ± 0.004	1202.19 ± 7.9

CCCCn1cc[n+](C)c1.F[B-](F)(F)F [1-butyl-3-methylimidazolium tetrafluoroborate] + O
Settings	electrical conductivity [S/m]	mass density [kg/m3]
x1 = 0.005053	1.72 ± 0.017	1007 ± 0.12
x1 = 0.008751	2.47 ± 0.03	1013.47 ± 0.12
x1 = 0.01927	3.59 ± 0.04	1030.78 ± 0.12
x1 = 0.03304	4.46 ± 0.04	1047.81 ± 0.13
x1 = 0.04969	4.9 ± 0.05	1065.19 ± 0.14
x1 = 0.07385	5.17 ± 0.05	1084.47 ± 0.16
x1 = 0.1053	5.21 ± 0.05	1103.47 ± 0.19
x1 = 0.1566	4.93 ± 0.05	1124.77 ± 0.28
x1 = 0.1991	4.55 ± 0.05	1137.3 ± 0.39
x1 = 0.2824	3.71 ± 0.04	1154.46 ± 0.68
x1 = 0.414	2.57 ± 0.03	1171.08 ± 1.4
x1 = 0.4919	2.04 ± 0.02	1177.86 ± 1.9
x1 = 0.5749	1.57 ± 0.016	1183.94 ± 2.5
x1 = 0.6838	1.1 ± 0.011	1190.14 ± 3.6
x1 = 0.7594	0.846 ± 0.008	1193.53 ± 4.5
x1 = 0.8931	0.527 ± 0.005	1198.74 ± 6.2
x1 = 1	0.353 ± 0.004	1202.19 ± 7.9

CCn1cc[n+](C)c1.F[B-](F)(F)F [1-ethyl-3-methylimidazolium tetrafluoroborate] + CC#N
Settings	electrical conductivity [S/m]	mass density
x1 = 0.008411	1.58 ± 0.016	791.26 ± 0.15 kg/m3
x1 = 0.01082	1.9 ± 0.02	795.48 ± 0.15 kg/m3
x1 = 0.01528	2.46 ± 0.03	802.59 ± 0.15 kg/m3
x1 = 0.01646	2.55 ± 0.03	804.68 ± 0.15 kg/m3
x1 = 0.02252	3.13 ± 0.03	814.3 ± 0.15 kg/m3
x1 = 0.02253	3.14 ± 0.03	813.87 ± 0.15 kg/m3
x1 = 0.04929	4.89 ± 0.05	853.38 ± 0.15 kg/m3
x1 = 0.04942	4.94 ± 0.05	854.17 ± 0.16 kg/m3
x1 = 0.08059	6.03 ± 0.06	893.87 ± 0.16 kg/m3
x1 = 0.1007	6.5 ± 0.07	916.26 ± 0.19 kg/m3
x1 = 0.1218	6.72 ± 0.07	939.88 ± 0.18 kg/m3
x1 = 0.1433	6.94 ± 0.07	960.07 ± 0.23 kg/m3
x1 = 0.1736	6.92 ± 0.07	988.57 ± 0.2 kg/m3
x1 = 0.2043	6.91 ± 0.07	1012.5 ± 0.33 kg/m3
x1 = 0.2371	6.65 ± 0.07	1038.16 ± 0.22 kg/m3
x1 = 0.2778	6.41 ± 0.06	1063.36 ± 0.56 kg/m3
x1 = 0.3264	5.9 ± 0.06	1093.25 ± 0.27 kg/m3
x1 = 0.384	5.41 ± 0.05	1120.11 ± 1.1 kg/m3
x1 = 0.4565	4.64 ± 0.05	1153.25 ± 0.38 kg/m3
x1 = 0.4888	4.44 ± 0.04	1163.04 ± 1.8 kg/m3
x1 = 0.6478	3.2 ± 0.03	1211.72 ± 3.4 kg/m3
x1 = 0.652	3.1 ± 0.03	1215.55 ± 0.65 kg/m3
x1 = 0.759	2.54 ± 0.03	1237.95 ± 4.8 kg/m3
x1 = 0.8336	2.11 ± 0.02	1255.87 ± 1 kg/m3
x1 = 0.8902	1.95 ± 0.02	1263.01 ± 6.9 kg/m3
x1 = 1	1.55 ± 0.016	1283.7 ± 1.5 kg/m3 and 1280.38 ± 8.9 kg/m3

CCn1cc[n+](C)c1.F[B-](F)(F)F [1-ethyl-3-methylimidazolium tetrafluoroborate] + O
Settings	electrical conductivity [S/m]	mass density [kg/m3]
x1 = 0.004746	1.87 ± 0.019	1007.69 ± 0.12
x1 = 0.01001	3.26 ± 0.03	1018.31 ± 0.12
x1 = 0.02226	5.35 ± 0.05	1040.22 ± 0.13
x1 = 0.03637	6.81 ± 0.07	1061.36 ± 0.14
x1 = 0.05733	8.08 ± 0.08	1087.31 ± 0.16
x1 = 0.08102	8.84 ± 0.09	1110.93 ± 0.18
x1 = 0.115	9.24 ± 0.09	1136.45 ± 0.22
x1 = 0.174	9.08 ± 0.09	1168.6 ± 0.35
x1 = 0.2564	8.13 ± 0.08	1198.61 ± 0.64
x1 = 0.419	5.99 ± 0.06	1233.28 ± 1.6
x1 = 1	1.55 ± 0.016	1283.7 ± 9

CCCCCCn1cc[n+](C)c1.F[B-](F)(F)F [1-hexyl-3-methylimidazolium tetrafluoroborate] + CC#N
Settings	electrical conductivity [S/m]	mass density [kg/m3]
x1 = 0.004117	0.838 ± 0.008	784.24 ± 0.15
x1 = 0.008445	1.442 ± 0.014	791.63 ± 0.15
x1 = 0.01744	2.35 ± 0.02	806.26 ± 0.15
x1 = 0.03816	3.51 ± 0.04	836.42 ± 0.15
x1 = 0.06486	4.13 ± 0.04	869.76 ± 0.16
x1 = 0.09763	4.25 ± 0.04	903.86 ± 0.18
x1 = 0.1399	3.96 ± 0.04	939.67 ± 0.21
x1 = 0.1943	3.37 ± 0.03	975.94 ± 0.28
x1 = 0.2712	2.53 ± 0.03	1014.86 ± 0.47
x1 = 0.3907	1.543 ± 0.015	1056.74 ± 0.97
x1 = 0.5902	0.656 ± 0.007	1100.45 ± 2.3
x1 = 0.7435	0.344 ± 0.003	1122.12 ± 3.8
x1 = 0.8889	0.192 ± 0.002	1137.2 ± 5.5
x1 = 1	0.1228 ± 0.0012	1146.34 ± 7.1
